Data published in article PMC9506633, “Design, synthesis, anti-proliferative evaluation, docking, and MD simulations studies of new thiazolidine-2,4-diones targeting VEGFR-2 and apoptosis pathway” (PLoS ONE, 2022).

Experiments:
A549 = experiment: MTT anti-proliferative assay, A549; assay type: cell-based; conditions: for IC50: Homo sapiens, A549 cell line, MTT; for Selectivity index (A549): SI = Cytotoxicity against Vero cells / Cytotoxicity against A549 cell line
Procedure: (§1) The cytotoxicity effects of the synthesized candidates were evaluated against A549, Caco-2, HepG2, and MDA-mb-231 cell lines. MTT assay method was applied using the sub-IC50 concentrations of each compound as the treatment dose. Doxorubicin was used as a reference molecule. […] Also, it was noticed that Caco-2 was the most sensitive cell line.
(§2) The synthesized compounds were evaluated for their anti-proliferative activities against A549, Caco-2, HepG2, and MDA-mb-231 cell lines using the MTT assay protocol as described in S.1.2. Section in S1 File.
(§3) Mammalian cell lines culture
(§4) CaCo-2, and A549 cell lines were cultured on DMEM media, meanwhile MDA-MB-231 and hepG-2 cell line were cultured on RBMI media. The cultured media were supplemented with 200 mM L-glutamine, 10.0% fetal bovine serum (Lonza), and 1.0% penicillin/streptomycin. Cells were seeded into 25.0 cm tissue culture flasks and incubated at 37 ◦C in a 5.0% CO 2 incubator for 24 h or till confluency.
(§5) The safety profiles of the tested compounds were checked on one non-cancerous cell line (Vero) to […]
(§6) of 100.0 µl of 6×10^4 cell/ml cells was seeded in to each well of a 96-well plate and then the plates were incubated at 37 °C in a humidified 5.0% CO2 incubator for 24 h. At the end of incubation period, the exhausted medium was replaced with 100.0 µl of different concentrations of the designated treatment (prepared in RPMI medium starting from 1.0 mM). The inoculated plates were incubated at the same growth conditions for another 24 h. At the end of incubation, cellular viability was assessed using MTS assay kit (Promega) according to the manual instruction.
(§7) S.1.2. In-vitro anticancer activity
(§8) Anticancer activities of the tested compounds against CaCo-2, MDA-MB-231, and hepG-2 cell lines were quantified using MTS assay kit (Promega) as described by the Manufacturer. […]

[1] = MTT anti-proliferative assay, Caco-2; assay type: cell-based; conditions: African green monkey (Vero); human (Caco-2); SI = Cytotoxicity against Vero cells / Cytotoxicity against Caco-2 cell line; read-out: Selectivity index (Caco-2)
Procedure: as §1, §2, §3, §4, §5, §6, §7, §8

Caco-2 = experiment: MTT anti-proliferative assay, Caco-2; assay type: cell-based; conditions: Homo sapiens; Caco-2 cell line, MTT; read-out: Anti-proliferative activity (IC50 μM) Caco2
Procedure: as §1, §2, §3, §4, §5, §6, §7, §8

HepG2 = experiment: MTT anti-proliferative assay, HepG2; assay type: cell-based; conditions: for IC50: Homo sapiens, HepG2 cell line, MTT; for Selectivity index (HepG2): SI = Cytotoxicity against Vero cells / Cytotoxicity against HepG2 cell line
Procedure: as §1, §2, §3, §4, §5, §6, §7, §8

MDA-mb-231 = experiment: MTT anti-proliferative assay, MDA-mb-231; assay type: cell-based; conditions: for IC50: Homo sapiens, MDA-mb-231 cell line, MTT; for Selectivity index (MDA-MB-231): SI = Cytotoxicity against Vero cells / Cytotoxicity against MDA-MB-231 cell line
Procedure: as §1, §2, §3, §4, §5, §6, §7, §8

VEGFR-2 = target: T1, VEGFR-2 (Homo sapiens, UniProt P35968); experiment: In vitro VEGFR-2 inhibition (VEGFR-2 ELISA kit); assay type: biochemical; conditions: for IC50: ELISA kit; for HillSlope (best-fit value) / LogIC50 (best-fit value): dose-response curve fit, raw data S.5
T1 construct: purchased
T1 sequence (P35968 20-1356): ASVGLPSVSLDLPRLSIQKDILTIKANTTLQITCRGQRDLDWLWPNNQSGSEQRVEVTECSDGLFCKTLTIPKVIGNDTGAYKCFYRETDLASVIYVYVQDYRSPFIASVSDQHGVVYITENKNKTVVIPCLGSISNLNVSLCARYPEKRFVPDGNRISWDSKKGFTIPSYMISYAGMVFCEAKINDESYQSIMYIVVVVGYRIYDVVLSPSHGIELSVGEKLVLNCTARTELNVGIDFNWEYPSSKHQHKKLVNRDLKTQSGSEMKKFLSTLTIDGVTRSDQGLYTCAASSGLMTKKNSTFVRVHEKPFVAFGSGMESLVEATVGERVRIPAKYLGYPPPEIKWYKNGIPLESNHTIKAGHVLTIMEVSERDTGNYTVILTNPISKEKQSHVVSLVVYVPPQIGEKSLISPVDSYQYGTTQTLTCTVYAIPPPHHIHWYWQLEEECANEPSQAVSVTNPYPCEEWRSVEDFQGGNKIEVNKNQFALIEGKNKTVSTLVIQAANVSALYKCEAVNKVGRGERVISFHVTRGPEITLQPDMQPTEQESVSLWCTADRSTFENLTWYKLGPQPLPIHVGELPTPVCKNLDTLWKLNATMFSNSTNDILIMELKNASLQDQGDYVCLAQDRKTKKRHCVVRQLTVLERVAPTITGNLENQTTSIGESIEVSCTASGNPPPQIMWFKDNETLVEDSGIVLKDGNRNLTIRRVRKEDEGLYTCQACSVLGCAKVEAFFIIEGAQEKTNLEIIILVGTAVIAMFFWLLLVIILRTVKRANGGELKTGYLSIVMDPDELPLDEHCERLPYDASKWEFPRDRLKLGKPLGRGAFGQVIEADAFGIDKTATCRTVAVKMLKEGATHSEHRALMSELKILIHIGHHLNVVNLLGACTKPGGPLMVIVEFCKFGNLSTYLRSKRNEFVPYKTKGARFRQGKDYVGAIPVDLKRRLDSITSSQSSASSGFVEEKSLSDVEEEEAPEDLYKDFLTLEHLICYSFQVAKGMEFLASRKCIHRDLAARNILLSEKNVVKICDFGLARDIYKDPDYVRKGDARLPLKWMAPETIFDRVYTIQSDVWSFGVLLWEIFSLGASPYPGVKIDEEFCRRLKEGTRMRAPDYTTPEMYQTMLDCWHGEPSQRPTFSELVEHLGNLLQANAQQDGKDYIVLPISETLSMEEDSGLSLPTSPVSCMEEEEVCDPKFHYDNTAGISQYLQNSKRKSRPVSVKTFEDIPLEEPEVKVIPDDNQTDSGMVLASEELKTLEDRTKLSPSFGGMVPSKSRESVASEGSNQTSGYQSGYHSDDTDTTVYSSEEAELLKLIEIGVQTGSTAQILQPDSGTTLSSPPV
Procedure: Compounds 10a, b and 14a-c were evaluated for their VEGFR-2inhibitory activity.
VEGFR-2 ELISA kit was used in this test as described in S.1.3. Section in S1 File. […]
S.1.3. In vitro VEGFR-2 kinase assay
All the synthesized compounds were tested for its inhibitory activity against VEGFR-2. Human VEGFR-2 ELISA kit (Enzyme-Linked Immunosorbent Assay) was utilized in this test. At first, specific antibody for VEGFR-2 was seeded on a 96-well plate and 100 μL of the standard solution or the tested compound was added, all were incubated at room temperature for 2.5 h. Then washed, 100 μL of the prepared biotin antibody was added, then incubated at room temperature for additional 1 h. and washed. Then, 100 μL of streptavidin solution was added and incubated for 45 min. at room temperature. Washed again, 100 μL of TMB Substrate reagent was added and incubated for 30 min. at room temperature. 50 μL of the stop solution was added, then read at 450 nm immediately. The standard curve was drawn, concentrations on the X-axis and the absorbance

[2] = Safety assay: cytotoxicity against Vero non-cancer cell line; assay type: cell-based; conditions: African green monkey, Vero cells (non-cancer cell line); Vero normal cell line
Procedure: In this work, the safety pattern of the synthesized derivatives 10a, b and 14a-c was also evaluated by testing their in vitro cytotoxicity against Vero non-cancer cell line using the MTT assay protocol.
Section in S1 File.
Mammalian cell lines culture […]
The cultured media were supplemented with 200 mM L-glutamine, 10.0% fetal bovine serum (Lonza), and 1.0% penicillin/streptomycin. Cells were seeded into 25.0 cm tissue culture flasks and incubated at 37 ◦C in a 5.0% CO 2 incubator for 24 h or till confluency.
as §5
as §6, with “instruction. […]” for “instruction.”

Row | SMILES | IC50 (A549) [µM] | Selectivity index (A549) (A549) | selectivity ratio [1] | IC50 (Caco-2) [µM] | IC50 (HepG2) [µM] | Selectivity index (HepG2) (HepG2) | IC50 (MDA-mb-231) [µM] | Selectivity index (MDA-MB-231) (MDA-mb-231) | IC50 (VEGFR-2) [µM] | HillSlope (best-fit value) (VEGFR-2) | LogIC50 (best-fit value) (VEGFR-2) | IC50 at 24 h [2] [µM]
1 | COc1ccc2[nH]c(=O)c(/C=C3\SC(=O)N(CC(=O)Nc4cc(Cl)ccc4Cl)C3=O)cc2c1 [Compound 10b, (Z)-N-(2,5-Dichlorophenyl)-2-(5-((6-methoxy-2-oxo-1,2-dihydroquinolin-3-yl)methylene)-2,4-dioxothiazolidin-3-yl)acetamide] | 92.5 ± 8.6 | 17.080 | 25.3 | 62.5 ± 5.4 | 71 ± 6.4 | 22.250 | 31.5 ± 2.5 | 51.333 | 0.165 ± 0.0153 | -0.3514 | 2.216 Log (nM) | 1580 ± 155
2 | O=C(CN1C(=O)SC(=C2C(=O)Nc3ccccc32)C1=O)Nc1cc(Cl)ccc1Cl [Compound 14b, N-(2,5-Dichlorophenyl)-2-(2,4-dioxo-5-(2-oxoindolin-3-ylidene)thiazolidin-3-yl)acetamide] | 292 ± 25.1 | 4.340 | 17.1 | 74 ± 6.5 | 42.5 ± 3.2 | 29.917 | 94.5 ± 8.4 | 13.555 | 0.0858 ± 0.0076 | -0.5620 | 1.934 Log (nM) | 1270 ± 126
3 | O=C(CN1C(=O)SC(=C2C(=O)Nc3ccccc32)C1=O)NCCc1ccccc1 [Compound 14c, 2-(2,4-Dioxo-5-(2-oxoindolin-3-ylidene)thiazolidin-3-yl)-N-phenethylacetamide] | 282 ± 27.3 | 3.463 | 5.07 | 192 ± 18.1 | 92 ± 8.1 | 10.601 | 484 ± 47.2 | 2.020 | 0.0815 ± 0.0073 | -0.4220 | 1.911 Log (nM) | 
